The record followed here is ChEMBL document CHEMBL2412962, “Human acidic mammalian chitinase as a novel target for anti-asthma drug design using in silico screening” (Bioorg Med Chem, 2013).

By IC50 is commonly meant the point on the concentration scale where inhibition reaches its midpoint.

This experiment has as its target Acidic mammalian chitinase (Homo sapiens, UniProt Q9BZP6). Kind of experiment: Inhibition of His-tagged recombinant human acidic mammalian chitinase expressed in Escherichia coli Rosetta-gami 2 (DE3) using 4MU-(GlcNAc)2 as substrate assessed as production of 4-methylumbelliferone measured every 5 mins by fluorescence assay.

Sequence of Acidic mammalian chitinase (Q9BZP6 whole entry): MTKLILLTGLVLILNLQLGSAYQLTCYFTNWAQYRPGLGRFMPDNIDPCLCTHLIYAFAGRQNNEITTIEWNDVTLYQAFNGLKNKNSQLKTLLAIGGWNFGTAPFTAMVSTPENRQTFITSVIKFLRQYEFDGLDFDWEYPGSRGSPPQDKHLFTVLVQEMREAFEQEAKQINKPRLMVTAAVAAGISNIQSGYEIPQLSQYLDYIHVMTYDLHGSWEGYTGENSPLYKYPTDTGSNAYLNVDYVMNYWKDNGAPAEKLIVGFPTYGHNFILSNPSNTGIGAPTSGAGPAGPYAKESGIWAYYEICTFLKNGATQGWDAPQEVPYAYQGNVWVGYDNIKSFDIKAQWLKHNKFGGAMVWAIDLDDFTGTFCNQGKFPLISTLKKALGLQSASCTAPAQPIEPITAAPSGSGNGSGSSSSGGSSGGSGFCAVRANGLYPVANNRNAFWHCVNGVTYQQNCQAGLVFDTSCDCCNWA

With `CN=C(S)NNC(=O)c1oc2nc(-c3ccccc3)cc(C)c2c1N`, the IC50 amounted to 30 µM.
